{"source": "patent US8344028B2", "about": "“Gamma-amino-butyric acid derivatives as GABAB receptor ligands” (XenoPort, Inc., priority 2009, dated 2013)", "key": {"[1]": {"target": "GABAB receptor (Homo sapiens, UniProt Q9UBS5)", "sequence (Q9UBS5 20-961)": "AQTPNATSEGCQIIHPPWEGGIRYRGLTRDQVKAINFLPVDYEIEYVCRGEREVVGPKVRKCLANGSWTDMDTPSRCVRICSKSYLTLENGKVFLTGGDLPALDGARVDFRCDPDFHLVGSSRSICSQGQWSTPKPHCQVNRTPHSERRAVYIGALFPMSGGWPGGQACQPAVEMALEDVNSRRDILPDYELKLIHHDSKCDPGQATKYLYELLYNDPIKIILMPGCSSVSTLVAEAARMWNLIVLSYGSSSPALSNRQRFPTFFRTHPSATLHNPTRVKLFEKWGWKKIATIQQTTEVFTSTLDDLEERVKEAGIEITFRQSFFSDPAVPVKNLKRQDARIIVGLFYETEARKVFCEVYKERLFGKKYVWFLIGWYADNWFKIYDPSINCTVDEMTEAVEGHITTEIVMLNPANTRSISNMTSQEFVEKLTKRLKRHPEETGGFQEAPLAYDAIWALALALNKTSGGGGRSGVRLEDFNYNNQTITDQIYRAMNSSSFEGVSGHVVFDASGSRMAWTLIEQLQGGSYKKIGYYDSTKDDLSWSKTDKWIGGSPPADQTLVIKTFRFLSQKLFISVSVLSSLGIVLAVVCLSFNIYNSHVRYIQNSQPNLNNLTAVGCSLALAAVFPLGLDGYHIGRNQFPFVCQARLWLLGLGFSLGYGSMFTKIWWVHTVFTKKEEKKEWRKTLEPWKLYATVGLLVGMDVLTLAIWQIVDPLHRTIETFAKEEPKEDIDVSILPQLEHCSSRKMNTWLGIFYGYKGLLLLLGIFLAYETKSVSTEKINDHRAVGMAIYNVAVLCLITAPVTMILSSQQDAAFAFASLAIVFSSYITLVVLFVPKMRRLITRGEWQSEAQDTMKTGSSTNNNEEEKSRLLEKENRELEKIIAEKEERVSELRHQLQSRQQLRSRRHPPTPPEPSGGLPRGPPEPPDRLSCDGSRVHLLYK", "sequence (O75899 42-941 partner)": "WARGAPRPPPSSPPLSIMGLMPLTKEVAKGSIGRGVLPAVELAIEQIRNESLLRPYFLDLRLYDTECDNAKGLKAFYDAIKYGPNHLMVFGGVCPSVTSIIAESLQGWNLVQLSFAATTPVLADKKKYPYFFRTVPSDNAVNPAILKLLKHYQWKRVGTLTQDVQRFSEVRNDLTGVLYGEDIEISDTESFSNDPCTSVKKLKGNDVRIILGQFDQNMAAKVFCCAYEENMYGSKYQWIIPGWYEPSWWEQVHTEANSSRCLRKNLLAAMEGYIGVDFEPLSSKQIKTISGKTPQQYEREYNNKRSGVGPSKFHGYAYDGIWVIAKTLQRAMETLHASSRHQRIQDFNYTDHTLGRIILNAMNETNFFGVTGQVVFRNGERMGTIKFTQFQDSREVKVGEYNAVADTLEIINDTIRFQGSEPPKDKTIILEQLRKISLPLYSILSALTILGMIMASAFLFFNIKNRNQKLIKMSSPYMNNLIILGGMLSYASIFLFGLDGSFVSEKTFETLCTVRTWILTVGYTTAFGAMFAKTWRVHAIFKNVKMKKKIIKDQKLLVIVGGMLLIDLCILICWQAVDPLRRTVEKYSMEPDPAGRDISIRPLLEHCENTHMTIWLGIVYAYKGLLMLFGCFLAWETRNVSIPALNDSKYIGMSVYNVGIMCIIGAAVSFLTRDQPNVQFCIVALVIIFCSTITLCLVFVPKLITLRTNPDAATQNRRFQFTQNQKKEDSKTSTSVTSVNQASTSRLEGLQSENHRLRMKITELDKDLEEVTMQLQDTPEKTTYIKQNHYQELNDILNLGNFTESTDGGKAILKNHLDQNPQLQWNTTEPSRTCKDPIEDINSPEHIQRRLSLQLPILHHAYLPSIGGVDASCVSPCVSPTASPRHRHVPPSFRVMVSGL", "test": "GABAB receptor agonist or partial agonist activity by binding, electrophysiology, cAMP and/or Ca2+ assay methods (Examples 83-86)", "assay_type": "cell-based", "how_it_was_run": "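Binding: rat cortex membranes in 50 mM Tris pH 7.4 with 100 μM isoguvacine were preincubated 10 min at RT with compound, then radiolabeled CGP54626 (1-10 nM) was added; filtered and scintillation-counted. cAMP: GABAB R1a2 HEK cells, 1 h RT with 100 μM forskolin, chemiluminescence.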"}, "[2]": {"target": "T1, recombinant human GABABR1a2 (Homo sapiens, UniProt Q9UBS5)", "T1 construct": "expressed in transfected cells; host or cells: HEK cells", "T1 sequence (Q9UBS5 15-961 limits assumed)": "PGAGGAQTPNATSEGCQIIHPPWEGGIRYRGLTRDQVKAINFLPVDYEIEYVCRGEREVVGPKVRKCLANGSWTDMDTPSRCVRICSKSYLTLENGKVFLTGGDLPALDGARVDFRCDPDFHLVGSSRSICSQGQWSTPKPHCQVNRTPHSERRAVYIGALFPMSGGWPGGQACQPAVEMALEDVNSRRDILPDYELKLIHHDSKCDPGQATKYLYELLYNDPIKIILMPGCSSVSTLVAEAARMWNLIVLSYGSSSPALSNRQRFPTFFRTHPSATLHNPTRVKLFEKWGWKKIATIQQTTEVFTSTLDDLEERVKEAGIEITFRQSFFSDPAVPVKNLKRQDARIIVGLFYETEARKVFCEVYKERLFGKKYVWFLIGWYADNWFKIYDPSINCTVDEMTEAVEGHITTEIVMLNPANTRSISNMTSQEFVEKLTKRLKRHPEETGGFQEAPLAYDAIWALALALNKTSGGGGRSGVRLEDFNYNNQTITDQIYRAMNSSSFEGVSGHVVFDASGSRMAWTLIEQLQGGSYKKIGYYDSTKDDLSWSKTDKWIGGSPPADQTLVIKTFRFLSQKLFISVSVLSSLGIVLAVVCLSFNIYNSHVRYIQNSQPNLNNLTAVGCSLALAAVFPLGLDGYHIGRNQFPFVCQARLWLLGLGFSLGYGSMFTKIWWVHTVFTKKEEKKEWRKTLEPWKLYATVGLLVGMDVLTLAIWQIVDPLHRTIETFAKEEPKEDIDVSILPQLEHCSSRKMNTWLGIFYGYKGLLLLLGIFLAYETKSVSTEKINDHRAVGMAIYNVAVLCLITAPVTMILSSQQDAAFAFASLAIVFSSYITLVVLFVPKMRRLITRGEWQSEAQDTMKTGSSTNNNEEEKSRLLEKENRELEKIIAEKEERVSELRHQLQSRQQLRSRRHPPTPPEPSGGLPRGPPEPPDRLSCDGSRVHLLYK", "T1 sequence (O75899 42-941 partner)": "as the sequence (O75899 42-941 partner) above", "test": "Ca2+ assay for determining GABAB receptor agonist activity", "assay_type": "cell-based", "conditions": "cells expressing recombinant human GABABR1a2", "procedure": "The following procedure was used to determine the GABAB receptor agonist activity of a compound as reflected by activation of Ca^2+ signaling. HEK TREx cells expressing GABABR1a2 under tetracycline induction control, and Gqi chimeric protein (expressed constitutively), allowing GABABR coupling through the Ca^2+ signaling pathway were used in the experiments.\nCells were seeded in media containing tetracycline overnight at 100,000 cells/well, in black, clear-bottom, 96-well plates. The following morning, cells were washed twice with 100 μL HBSS buffer per well. Fluorescent Ca^2+ indicator dye was prepared using the materials and procedure described in the F362056 Fluo-4 NW Calcium Assay Kit (Invitrogen, Carlsbad, Calif.). Ten (10) mL of kit buffer and 100 μl of kit Probenecid were added to individual kit dye vials, and rolled back and forth several times to dissolve the dye. Cells were then loaded into the dye solution at 50 μL per well. The cells and dye were incubated for 30 min at 37° C., and then incubated for an additional 30 min at room temperature in the dark. Test compounds are dissolved in HBSS buffer at twice final concentration. Duplicate wells were used for each unique condition. Solution containing the test compound was added to the wells using a FLEXStation II (Molecular Devices, Sunnyvale, Calif.). Using the instrument in kinetic mode in which each well was read every 2 sec over a total collection time of 50 sec fluorescence was measured using an excitation wavelength 494 nm and a detection wavelength of 516 nm. A normalized fluorescence value for each well was calculated using the following procedure. The difference in fluorescence at 35 sec (usually representing maximal response) and at 15 sec (a time point prior to addition of test compounds) was calculated, divided by the fluorescence at 15 sec, and the result multiplied by 100. The final value represented the percent increase in fluorescence relative to the fluorescence at 15 sec. Data was analyzed using standard procedures."}, "[3]": {"target": "T1, recombinant human GABABR1a2", "test": "cAMP assay for determining GABAB receptor agonist activity", "assay_type": "cell-based", "conditions": "cells expressing recombinant human GABABR1a2; read-out: cAMP EC50", "procedure": "The following procedure was used to determine the level of intracellular cAMP. Recombinant HEK cells expressing the GABAB R1a2 receptor were used in the experiments. cAMP levels were measured using a cAMP XS^+ HitHunter™ Chemiluminescence Assay Kit (90-0075-02, GE Healthcare Biosciences Corp.). Cells were seeded overnight at 5,000 cells per well, in black, clear bottom 96-well plates. The following morning, cells were washed twice with 100 μL PBS per well. Forskolin was weighed out and dissolved in DMSO to a final concentration 100 mM. One-hundred (100) μM forskolin solutions were prepared in PBS with and without test compound at 1-times final concentration. Thirty (30) μL of the test solutions were added to the wells and incubated for 1 h at room temperature. The cAMP concentration was determined according to the protocol described in the cAMP assay kit, maintaining the plate at room temperature and in the dark. Two hours after the final kit reagent was added, the plate bottom was covered with black tape, and the plate read using a 1450 MicroBeta Trilux microplate scintillation and luminescence counter (PerkinElmer, Waltham, Mass.). Each well was read for 6 seconds. The untransformed data was then analyzed."}, "[4]": {"target": "T2, GABAB receptor (Rattus norvegicus, UniProt Q9Z0U4)", "T2 construct": "from tissue; host or cells: rat cerebral cortex membranes", "T2 sequence (Q9Z0U4 20-960)": "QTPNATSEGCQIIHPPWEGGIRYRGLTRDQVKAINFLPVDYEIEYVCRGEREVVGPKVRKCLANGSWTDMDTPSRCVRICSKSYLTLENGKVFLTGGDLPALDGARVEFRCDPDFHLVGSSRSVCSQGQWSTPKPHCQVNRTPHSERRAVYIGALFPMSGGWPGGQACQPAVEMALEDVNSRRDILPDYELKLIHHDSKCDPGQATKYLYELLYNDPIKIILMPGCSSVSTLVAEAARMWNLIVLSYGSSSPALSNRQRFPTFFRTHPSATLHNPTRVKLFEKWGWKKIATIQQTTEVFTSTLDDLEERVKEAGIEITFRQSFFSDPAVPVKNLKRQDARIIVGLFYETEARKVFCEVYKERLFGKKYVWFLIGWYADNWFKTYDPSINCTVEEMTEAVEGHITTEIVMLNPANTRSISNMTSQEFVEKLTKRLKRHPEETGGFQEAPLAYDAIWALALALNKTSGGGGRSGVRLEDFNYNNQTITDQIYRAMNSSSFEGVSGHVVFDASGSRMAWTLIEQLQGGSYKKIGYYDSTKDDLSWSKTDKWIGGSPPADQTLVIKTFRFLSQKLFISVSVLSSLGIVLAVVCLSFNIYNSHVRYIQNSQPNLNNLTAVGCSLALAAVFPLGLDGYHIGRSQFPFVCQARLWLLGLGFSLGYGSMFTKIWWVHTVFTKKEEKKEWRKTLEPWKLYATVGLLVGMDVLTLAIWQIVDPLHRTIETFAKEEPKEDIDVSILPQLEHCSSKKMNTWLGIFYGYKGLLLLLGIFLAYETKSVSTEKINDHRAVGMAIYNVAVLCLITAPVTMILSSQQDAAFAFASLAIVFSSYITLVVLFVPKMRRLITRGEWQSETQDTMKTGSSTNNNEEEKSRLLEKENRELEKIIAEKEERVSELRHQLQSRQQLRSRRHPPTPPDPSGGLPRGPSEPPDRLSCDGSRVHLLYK", "T2 sequence (O88871 41-940 partner)": "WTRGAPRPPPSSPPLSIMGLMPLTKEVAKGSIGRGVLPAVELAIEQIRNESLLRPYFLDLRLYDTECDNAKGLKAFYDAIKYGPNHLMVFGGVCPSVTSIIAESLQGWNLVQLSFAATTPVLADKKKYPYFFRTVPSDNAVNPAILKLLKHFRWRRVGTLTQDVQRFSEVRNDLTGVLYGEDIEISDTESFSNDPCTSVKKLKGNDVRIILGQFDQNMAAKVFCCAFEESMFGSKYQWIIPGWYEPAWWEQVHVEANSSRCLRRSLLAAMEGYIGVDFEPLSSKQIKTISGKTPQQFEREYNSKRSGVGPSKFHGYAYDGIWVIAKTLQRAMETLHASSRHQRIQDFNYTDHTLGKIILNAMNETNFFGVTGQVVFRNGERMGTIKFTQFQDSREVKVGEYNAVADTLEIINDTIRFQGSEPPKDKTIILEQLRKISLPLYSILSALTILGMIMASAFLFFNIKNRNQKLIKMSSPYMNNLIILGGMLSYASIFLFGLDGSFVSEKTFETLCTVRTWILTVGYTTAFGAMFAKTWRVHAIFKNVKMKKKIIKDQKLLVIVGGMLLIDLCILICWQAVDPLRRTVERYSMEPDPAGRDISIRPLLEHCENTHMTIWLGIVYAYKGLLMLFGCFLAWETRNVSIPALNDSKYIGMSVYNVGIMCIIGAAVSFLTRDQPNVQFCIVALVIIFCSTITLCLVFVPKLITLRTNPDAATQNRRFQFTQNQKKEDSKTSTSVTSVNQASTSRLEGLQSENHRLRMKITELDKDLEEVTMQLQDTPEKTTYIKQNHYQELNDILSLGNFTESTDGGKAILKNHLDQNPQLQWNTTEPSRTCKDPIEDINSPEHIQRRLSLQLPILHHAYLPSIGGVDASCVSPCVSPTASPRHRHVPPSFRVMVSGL", "test": "[3H]CGP54626 rat brain GABAB receptor binding assay", "conditions": "[3H]CGP54626 rat brain binding assay", "procedure": "An assay using rat cerebral cortex membranes was used to determine the affinity of GABAB receptor ligands for the GABAB receptor.\nAn assay buffer of 50 mM Tris pH 7.4 was prepared with 100 μM of isoguvacine, to block GABAA interactions. The assay buffer with isoguvacine was used for dilution of membranes, compounds, and radiolabel.\nRat cerebral cortex membranes were diluted in assay buffer at 1 mg/mL and aliquoted into a 96-well plate at 900 μL/well. Buffer or test compound were added at 20-times final concentration in the buffer at 50 μL/well. Membranes and test compounds or buffer were incubated for 10 min. at room temperature. Radiolableled [S—(R*,R*)]-[3-[[1-(3,4-dichlorophenyl)ethyl]amino]-2-hydroxypropyl](cyclohexylmethyl) phosphinic acid (CGP54626) was then added at 50 μL/well in the buffer at 1-10 nM concentration in 50 μl. The mixture was incubated for 15 min. at room temperature. The assay mixture was filtered using Brandell filtration apparatus and GFB filters, washed twice with 3 mL of 4° C., 50 mM Tris pH 7.4, buffer without isoguvacine. The filters were then dried at room temperature and the dried filters punched out and placed in individual vials. Three (3) mL of scintillation fluid was added to each vial and the radiolabel counted on the scintillation counter. The inverse amount of radiolabel was indicative of binding of a test compound to the GABAB receptor."}, "[5]": {"test": "Bioavailability following oral administration to rats", "conditions": "rat, in vivo", "procedure": "Rats were obtained commercially and were pre-cannulated in the jugular vein. Animals were conscious at the time of the experiment. All animals were fasted overnight and until 4 hours post-dosing of a compound.\nRat blood samples (0.3 mL/sample) were collected from all animals prior to dosing and at different time-points up to 24 h post-dose into tubes containing EDTA. Two aliquots (100 μL each) were quenched with 300 μL methanol and stored at −20° C. prior to analysis.\nTo prepare analysis standards, 90 μL of rat blood was quenched with 300 μL methanol followed by 10 μL of spiking standard and/or 20 μL of internal standard. The sample tubes were vortexed for at least 2 min and then centrifuged at 3400 rpm for 20 min. The supernatant was then transferred to an injection vial or plate for analysis by LC-MS-MS.\nTo prepare samples for analysis, 20 μL of internal standard was added to each quenched sample tube. The sample tubes were vortexed for at least 2 min and then centrifuged at 3400 rpm for 20 min. The supernatant was then transferred to an injection vial or plate for analysis by LC-MS-MS.\nLC/MS/MS analysis was performed using an API 2000 or API 4000 mass spectrometer equipped with a Shimadzu and or Agilent HPLC system are used for determination concentration of compounds in rat blood. A Varian Polaris C18, 3μ 50×4.6 mm column was used. 0.1% Formic acid in water and acetonitrile were applied as the mobile phase. Runs were 4.0 min. […] L-4-Chlorophenylalanine was used as an internal standard at m/z 200.00/154.00.\nNon-compartmental analysis was performed using WinNonlin software (v.3.1 Professional Version, Pharsight Corporation, Mountain View, Calif.) on individual animal profiles. […]\nThe oral bioavailability (F %) of a compound was determined by comparing the area under the compound concentration vs time curve (AUC) following oral administration of a prodrug of a GABAB ligand with the AUC of the compound concentration vs time curve following intravenous administration of the GABAB ligand on a dose normalized basis."}, "[6]": {"test_system": "GABAB(1)+/- and GABAB(1)+/+ mice", "conditions": "9.6 mg/kg, cited from earlier work"}, "[7]": {"test_system": "S. murinus (house musk shrew)", "conditions": "subcutaneously 30 minutes prior to challenge at 1, 3, and 10 mg/kg; reduced from about 23; cited from earlier work"}}, "note": "pEC50, pIC50: −log10 of the molar value."}
{"smiles": "Cl.NC[C@H](CC(=O)O)c1ccc(Cl)c(NCc2ccncc2)c1", "note": "[Example 57, (3R)-4-Amino-3-{4-chloro-3-[(4-pyridylmethyl)amino]phenyl}butanoic acid hydrochloride]", "values": [{"measurement": "GABAB receptor agonist or partial agonist activity", "setting": "[1]", "value": "agonist or partial agonist activity"}, {"measurement": "pEC50", "setting": "[2]", "value": "> 6.15"}, {"measurement": "pEC50", "setting": "[3]", "value": "> 7.00"}, {"measurement": "pIC50", "setting": "[4]", "value": "> 4.60"}]}
{"smiles": "Cl.NC[C@H](CC(=O)O)c1ccc(Cl)c(NCc2cnc[nH]2)c1", "note": "[Example 60, (3R)-4-Amino-3-{4-chloro-3-[(imidazol-5-ylmethyl)amino]phenyl}butanoic acid hydrochloride]", "values": [{"measurement": "GABAB receptor agonist or partial agonist activity", "setting": "[1]", "value": "agonist or partial agonist activity"}, {"measurement": "pEC50", "setting": "[2]", "value": "> 6.15"}, {"measurement": "pEC50", "setting": "[3]", "value": "> 7.00"}, {"measurement": "pIC50", "setting": "[4]", "value": "> 4.60"}]}
{"smiles": "Cl.NC[C@H](CC(=O)O)c1ccc(Cl)c(-c2ccc(C(=O)O)s2)c1", "note": "[Example 67, 5-{5-[(1R)-2-Amino-1-(carboxymethyl)ethyl]-2-chlorophenyl}thiophene-2-carboxylic acid hydrochloride]", "values": [{"measurement": "GABAB receptor agonist or partial agonist activity", "setting": "[1]", "value": "agonist or partial agonist activity"}, {"measurement": "pEC50", "setting": "[2]", "value": "> 6.15"}, {"measurement": "pEC50", "setting": "[3]", "value": "> 7.00"}, {"measurement": "pIC50", "setting": "[4]", "value": "> 4.60"}]}
{"smiles": "C[C@H](N)C(=O)NC[C@H](CC(=O)O)c1ccc(Cl)c(OCc2ccncc2)c1.Cl", "note": "[Example 73, (3R)-4-((2S)-2-Aminopropanoylamino)-3-[4-chloro-3-(4-pyridylmethoxy)phenyl]butanoic acid hydrochloride]", "values": [{"measurement": "oral bioavailability (F %)", "setting": "[5]", "value": "greater than 10%"}]}
{"smiles": "Cl.NC(=O)CC[C@H](N)C(=O)NC[C@H](CC(=O)O)c1ccc(Cl)c(-c2ccc(C(=O)O)s2)c1", "note": "[Example 80]", "values": [{"measurement": "oral bioavailability (F %)", "setting": "[5]", "value": "greater than 10%"}]}
{"smiles": "NCC(CC(=O)O)c1ccc(Cl)cc1", "note": "(centres unmarked) [baclofen]", "values": [{"measurement": "hypothermia", "setting": "[6]; GABAB(1)+/- and GABAB(1)+/+ but not GABAB(1)-/- mice", "value": "marked hypothermia"}, {"measurement": "time after administration at which hypothermia reaches its minimum", "setting": "[6]", "value": "60 to 80", "unit": "min"}, {"measurement": "number of emetic episodes", "setting": "[7]", "value": "about 13"}]}
